# Test results reported in patent US20240174692A1, “PYRIMIDINE AROMATIC RING COMPOUNDS” (Medshine Discovery Inc., priority 2021, published 2024).
# Columns and labels:
# [1] = Pharmacokinetic evaluation of compounds in dogs; assay type: in vivo; conditions: dog, plasma, Beagle dogs
# Experimental: Purpose of assay: To assay the pharmacokinetic data of the compounds in Beagle dogs in vivo.
# (§1) Compound 014 was mixed with vehicle 20% DMSO/60% PEG400/20% (10% HP-β-CD in water), and the mixture was vortexed and sonicated to give a clear solution of 4 mg/mL. The candidate compound solutions were administered intravenously. Whole blood was collected for a certain period of time to prepare plasma. The drug concentration was analyzed by LC-MS/MS method, and pharmacokinetic parameters were calculated.
# as §1, with “mixed (15 mg/mL)” for “mixed”, “give solutions” for “give a clear solution”, “of 6 mg/mL to 15” for “of 4”, “administered orally.” for “administered intravenously.”
# [2] = Pharmacokinetic evaluation of compounds in rats; assay type: in vivo; conditions: rat, plasma, SD rats
# Experimental: Purpose of assay: To assay the pharmacokinetic data of the compounds in SD rats in vivo.
# as §1, with “Compounds were” for “Compound 014 was”, “5% DMSO/95%” for “20% DMSO/60% PEG400/20%”, “0.3” for “4”
# as §1, with “Compounds were” for “Compound 014 was”, “5% DMSO/95%” for “20% DMSO/60% PEG400/20%”, “a” for “a clear”, “7” for “4”, “orally.” for “intravenously.”
structure (smiles),measurement,setting,value
C#Cc1c(F)ccc2cc(N)cc(-c3ccc4c(N5CC6CCC(C5)N6)nc(OC[C@@]56CCCN5C[C@H](F)C6)nc4c3F)c12 [Compound 014],AUC(0-inf),"[1]; IV, 1.56 mg/kg",0.15 µM·h
same,C0,"[1]; IV, 1.56 mg/kg",971 nM
same,Vd,"[1]; IV, 1.56 mg/kg",5.89 L/kg
same,clearance,"[1]; IV, 1.56 mg/kg",271 mL/min/kg
same,half-life,"[1]; IV, 1.56 mg/kg",0.56 h
same,AUC(0-inf),"[1]; PO, 32.1 mg/kg",0.969 µM·h
same,Cmax,"[1]; PO, 32.1 mg/kg",439 nM
same,bioavailability,"[1]; PO, 32.1 mg/kg",16.9%
same,half-life,"[1]; PO, 32.1 mg/kg",10.8 h
same,AUC(0-inf),"[2]; IV, 1.56 mg/kg",0.15 µM·h
same,C0,"[2]; IV, 1.56 mg/kg",971 nM
same,Vd,"[2]; IV, 1.56 mg/kg",5.89 L/kg
same,clearance,"[2]; IV, 1.56 mg/kg",271 mL/min/kg
same,half-life,"[2]; IV, 1.56 mg/kg",0.56 h
same,AUC(0-inf),"[2]; PO, 31.7 mg/kg",0.427 µM·h
same,Cmax,"[2]; PO, 31.7 mg/kg",182 nM
same,bioavailability,"[2]; PO, 31.7 mg/kg",12.5%
same,half-life,"[2]; PO, 31.7 mg/kg",6.8 h
